Reference: US20090105278A1, “Selective inhibitors of human corticosteroid syntheses” (Universitat Des Saarlandes, priority 2004, published 2009)
Where two headings read alike, the source gives them in different places.

Assays:
human CYP11B2 = biological target: T1, human CYP11B2 (Homo sapiens, UniProt P19099); test: Screening test in transgenic fission yeast (S. pombe PE1) expressing human CYP11B2; type: cell-based; parameters: expressed in transfected cells; settings: S. pombe cells which express human CYP11B2, deoxycorticosterone substrate 100 nM, inhibitor 500 nM; for inhibition at 0.5 µM: read-out: % Inhibition human hCYP11B2
T1 sequence (P19099 25-503): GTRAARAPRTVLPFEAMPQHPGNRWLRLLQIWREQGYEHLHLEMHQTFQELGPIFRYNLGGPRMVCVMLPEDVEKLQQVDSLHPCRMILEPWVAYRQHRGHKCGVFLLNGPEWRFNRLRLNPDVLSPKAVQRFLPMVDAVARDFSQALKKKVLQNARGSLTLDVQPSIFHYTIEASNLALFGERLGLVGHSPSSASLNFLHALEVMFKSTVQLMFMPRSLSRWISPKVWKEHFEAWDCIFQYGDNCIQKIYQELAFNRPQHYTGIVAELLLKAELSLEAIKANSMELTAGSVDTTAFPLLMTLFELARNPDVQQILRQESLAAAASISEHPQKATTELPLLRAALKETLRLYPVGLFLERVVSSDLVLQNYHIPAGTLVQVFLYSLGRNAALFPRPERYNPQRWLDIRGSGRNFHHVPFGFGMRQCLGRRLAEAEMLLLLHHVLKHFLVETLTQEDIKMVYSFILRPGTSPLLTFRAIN
Experimental: 492.5 μl of this cell suspension was admixed with 5 μl of inhibitor solution (50 μM of the compound to be tested in ethanol or DMSO) and incubated at 32° C. for 15 min. Controls were admixed with 5 μl of ethanol. […] The test was quenched by extracting the sample with 500 μl of EtOAc. After centrifugation (10,000 g, 2 min), the EtOAc phase was removed and evaporated to dryness. […] The reaction of the substrate to form corticosterone was analyzed by HPTLC (see below).
The quantification of the spots for the substrate deoxycorticosterone and the products corticosterone (and, if detectable, 18-hydroxycorticosterone and aldosterone) was effected with the related evaluation program AIDA. […] The calculation of the conversion rate was effected according to equation 1.
The plate was developed twice with the mobile solvent chloroform:methanol:water (300:20:1). Unlabeled 11-deoxycorticosterone and corticosterone were applied as a reference for the CYP11B1 reaction. For the CYP11B2 reaction, 11-deoxycorticosterone, corticosterone, 18-hydroxycorticosterone and aldosterone were used as references. The detection of the unlabeled references was effected at 260 nm. Subsequently, imaging plates (BAS MS2340, for ^14C samples, Raytest, Straubenhardt, Germany) were exposed to the HPTLC plates for 48 h. The imaging plates were scanned with the phosphoimager system Fuji FLA 3000 (Raytest, Straubenhardt, Germany), and the steroids were quantified.

human CYP17 = biological target: T2, human CYP17 (Homo sapiens, UniProt P05093); test: Percent inhibition of CYP17 (membrane fraction of E. coli pJL17/OR); type: biochemical; settings: for inhibition at 2.5 µM: read-out: % Inhibition human CYP17
T2 construct: made in house; host or cells: E. coli pJL17/OR (membrane fraction)
T2 sequence (P05093 1-508): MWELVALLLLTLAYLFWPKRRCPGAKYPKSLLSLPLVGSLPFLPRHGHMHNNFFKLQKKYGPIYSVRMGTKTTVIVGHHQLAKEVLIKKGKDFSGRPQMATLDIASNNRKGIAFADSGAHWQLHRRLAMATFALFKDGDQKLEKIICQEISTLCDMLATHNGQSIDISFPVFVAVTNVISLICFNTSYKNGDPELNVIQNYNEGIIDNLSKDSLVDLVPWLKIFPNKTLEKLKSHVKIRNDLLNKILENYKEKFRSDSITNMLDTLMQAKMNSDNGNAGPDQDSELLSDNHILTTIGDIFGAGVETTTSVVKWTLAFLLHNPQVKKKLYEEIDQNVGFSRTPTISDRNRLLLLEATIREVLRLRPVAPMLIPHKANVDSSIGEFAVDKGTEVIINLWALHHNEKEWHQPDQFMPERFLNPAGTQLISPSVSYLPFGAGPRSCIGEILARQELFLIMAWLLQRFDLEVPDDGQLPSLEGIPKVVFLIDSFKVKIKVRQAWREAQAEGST
Experimental: The recombinantly altered E. coli strain pJL17/OR, in which human CYP17 and rat NADPH-P450-reductase were coexpressed, was grown and stored according to the method of Ehmer et al. (Ehmer, P. B. et al., J. Steroid Biochem. Mol. Biol. 75: 57-63 (2000)). For isolating the membrane fraction, 5 ml of the bacterial cell suspension with an OD578 of 50 was washed with phosphate buffer (0.05 M; pH 7.4; 1 mM MgCl2; 0.1 mM EDTA and 0.1 mM DTT). The bacteria were removed by centrifugation and resuspended in 10 ml of ice cold TES buffer (0.1 M tris-acetate; pH 7.8; 0.5 mM EDTA; 0.5 M sucrose). Four milligrams of lysozyme in 10 ml of ice cold water was added to obtain a final concentration of 0.2 mg/ml. This was followed by incubation for 30 minutes under continued shaking on ice. The spheroblasts were obtained by a renewed centrifugation step at 12,000 g for 10 min and again resuspended in 3 ml of ice cold phosphate buffer (composition see above, additionally 0.5 mM PMSF).
After freezing and thawing, the cells were lysed on ice with an ultrasonic disintegrator. The whole cells and the cell debris were centrifuged off at 3000 g for 7 min. The supernatant was again centrifuged at 50,000 g for 20 min at 4° C. A membrane pellet sedimented and was resuspended in 2 ml of phosphate buffer (composition see above) with […] by means of an Ultra-Turrax mixer. […] Aliquots with an approximate protein concentration of 5 mg/ml were stored at −70° C. until use.
Control incubations were performed in parallel with 5 μl DMSO without urea. The reaction was started by adding 50 μl of a membrane suspension diluted 1 to 5 in phosphate buffer (0.8 to 1 mg of protein per ml). After thoroughly mixing the components, the mixture was incubated at 37° C. for 30 min.
The steroids were extracted with 1 ml of EtOAc. […] After the centrifugation, 800 μl of the organic phase was removed, placed into a new vessel and evaporated to dryness. The samples were dissolved in 50 μl of a water-methanol mixture (1:1) and analyzed by HPLC. The substrate conversion was calculated from the ratio of the areas of the product peaks (17α-hydroxyprogesterone and 16α-hydroxyprogesterone) to that of the substrate peak. The activity of the inhibitors was calculated from the reduced substrate conversion after the addition of inhibitors in accordance with the following formula: […]

bovine adrenal CYP11B = biological target: T3, bovine adrenal CYP11B (Bos taurus, UniProt P15150); test: Percent inhibition of bovine CYP11B (adrenal mitochondria); settings: corticosterone substrate 200 μM, inhibitor 1 μM; for % Inhibition bovine bCYP11B: bovine adrenal mitochondria, 1 mg/ml protein; for inhibition at 1 µM: read-out: % Inhibition bovine bCYP11B, bovine adrenal mitochondria, 1 mg/ml protein
T3 sequence (P15150 25-503): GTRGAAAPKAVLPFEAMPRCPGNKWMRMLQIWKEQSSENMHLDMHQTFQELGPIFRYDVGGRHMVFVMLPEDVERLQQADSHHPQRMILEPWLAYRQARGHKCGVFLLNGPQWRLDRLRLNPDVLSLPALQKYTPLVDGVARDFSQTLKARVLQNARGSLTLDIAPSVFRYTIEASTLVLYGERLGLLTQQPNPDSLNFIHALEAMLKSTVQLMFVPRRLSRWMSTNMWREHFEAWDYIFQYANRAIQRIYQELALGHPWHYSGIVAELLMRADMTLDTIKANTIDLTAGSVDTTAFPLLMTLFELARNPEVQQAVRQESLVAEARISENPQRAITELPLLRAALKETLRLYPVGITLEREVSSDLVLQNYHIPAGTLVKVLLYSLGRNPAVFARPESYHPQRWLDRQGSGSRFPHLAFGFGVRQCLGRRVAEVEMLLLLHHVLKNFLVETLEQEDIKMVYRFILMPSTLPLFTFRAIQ
Experimental: Bovine adrenal glands obtained freshly after slaughtering were stored in ice cold Tris-sucrose buffer (0.25 M sucrose, 0.05 M Tris; pH 7.4) until processed. After removing the appending adipose tissue, the adrenal medulla was carefully separated from the adrenal cortex using scissors. The pieces of adrenal cortex were coarsely comminuted with scissors, washed with Tris-sucrose buffer, weighed and finely comminuted in the above buffer (2 ml per g of tissue) with a hand mixer. Thereafter, the tissue was homogenized with an Ultra-Turrax mixer. For separating coarse cell debris and the nuclei, the homogenizate was centrifuged twice for 15 min at 900 g and 4° C. The supernatant was subsequently centrifuged for 35 min at 11,000 g for recovering the mitochondrial fraction. For purifying the mitochondrial fraction, the precipitate was resuspended in Tri-sucrose buffer and again centrifuged at 11,000 g for 35 min. This washing step was performed two times in total. After the last centrifugation, the pellet was resuspended in Tris-sucrose buffer containing 0.001 M EDTA and frozen at −70° C.
The substrate corticosterone was dissolved in methanol and diluted with Tris buffer to a final concentration of 200 μM. The inhibitors were also dissolved in methanol and diluted with buffer to a final concentration of 1 μM. […] Corticosterone (200 μM) was incubated with inhibitor (1 μM) and mitochondrial enzyme (0.5 mg/0.5 ml) with the addition of a regenerating system consisting of NADP^+ (1 mM), glucose-6-phosphate (7 mM) and glucose-6-Phosphate dehydrogenase (1 IU/0.5 ml). Up to 5 inhibitors per test could be incubated in duplicate. […] After preincubation for 5 minutes (30° C.; water bath), the reaction was started by adding mitochondrial suspension. […] The blind values were admixed with 250 μl of HCl before the enzyme was pipetted in. The steroids were separated off by shaking with 1 ml of ethyl acetate (10 min). After centrifugation (15,000 g, 10 min), 900 μl of the organic phase was shaken with 250 μl 1 N NaOH (10 min), and 800 μl of supernatant was again washed with 250 μl of buffer. […] 18-OH-corticosterone (retention time: 10 min) and corticosterone (retention time: 21 min) were separated. The height of the 18-OH-corticosterone peak was used for evaluation. The percent inhibition of the 18-hydroxylation of corticosterone by the inhibitors was based on the mediums of the control incubation, taking the blind values into account.

CYP11B1 in NCI-H295R = biological target: T4, CYP11B1 in NCI-H295R (Homo sapiens, UniProt P15538); test: cell-based; settings: read-out: NCI-H295R CYP11B1 RSS % inhibition
T4 sequence (P15538 25-503): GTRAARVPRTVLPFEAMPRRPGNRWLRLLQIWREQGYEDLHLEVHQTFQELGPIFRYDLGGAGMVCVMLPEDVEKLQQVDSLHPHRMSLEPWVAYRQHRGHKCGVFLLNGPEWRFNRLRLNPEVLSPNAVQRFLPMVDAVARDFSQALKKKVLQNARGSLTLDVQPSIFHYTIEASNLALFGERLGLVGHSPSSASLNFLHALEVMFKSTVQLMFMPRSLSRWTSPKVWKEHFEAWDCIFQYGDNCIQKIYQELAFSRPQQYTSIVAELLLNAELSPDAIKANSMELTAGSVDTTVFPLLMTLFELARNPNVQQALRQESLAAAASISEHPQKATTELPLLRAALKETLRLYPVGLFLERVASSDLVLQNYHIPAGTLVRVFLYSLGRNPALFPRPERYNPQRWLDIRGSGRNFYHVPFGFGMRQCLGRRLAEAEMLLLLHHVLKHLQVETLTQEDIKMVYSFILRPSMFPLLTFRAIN
Experimental: For testing inhibitors, a preincubation for one hour was performed first, followed by starting the enzyme reactions by adding substrate (500 nM).
A) Seeding: The cell lines were grown and passaged until a confluent cell lawn had formed. By tryptic treatment, the cell material of at least two culture dishes was obtained, and the number of cells determined by means of a CASY TT cell counter (150 μl capillary). […] With the cell material of two confluently grown culture dishes, two 24-well plates could be coated. After 24 hours, the cells had grown on, and after another 24 hours' stimulation phase with a solution containing potassium ions (final concentration: 20 mM KCl), could be employed for the test.
Of this solution, 5 μl each was added to the samples.
Then, the 24-well plate was stored in a CO2 incubator at 37° C. and […]. The incubation time was 3 hours when deoxycorticosterone was used as the substrate, 24 Hours for corticosterone, and 48 hours for deoxycortisol.
Test stop: After elapse of the incubation times, the plates were briefly swung, and then the content of the wells was removed quantitatively if possible and inactivated by mixing with 1000 μl of dichloromethane in a 2 ml Eppendorf vessel. After 10 minutes of shaking, it was centrifuged for phase separation, and the […], organic phase was transferred into a 1.5 ml Eppendorf vessel. […]

ACTH-stimulated rats = settings: Hausler et al. 1989; cited from earlier work
[1] = E. coli which expresses human CYP17, 5 mg/ml protein, progesterone substrate 2.5 μM, inhibitor 2.5 μM

| Molecule | inhibition at 0.5 µM (human CYP11B2) [%] | melting point [°C] | inhibition at 2.5 µM (human CYP17; [1]) [%] | % Inhibition bovine bCYP11B (bovine adrenal CYP11B; oxalate) [%] | inhibition at 1 µM (bovine adrenal CYP11B) [%] | % Inhibition human hCYP11B2 (human CYP11B2) [%] | % Inhibition human CYP17 (human CYP17; [1]) [%] | % Inhibition bovine bCYP11B (bovine adrenal CYP11B) [%] | inhibition at 2.5 µM (human CYP17) [%] | inhibition at 2.5 µM (CYP11B1 in NCI-H295R) [%] | Aldosterone and corticosterone levels (ACTH-stimulated rats) |
| --- | --- | --- | --- | --- | --- | --- | --- | --- | --- | --- | --- |
| N#Cc1ccc2c(c1)CC/C2=C\c1cnc[nH]1.O=C(O)C(=O)O [Compound 45a, (1E)-1-(1H-Imidazole-5-ylmethylene)indane-5-carbonitrile oxalate] | 49 | 217 | 21 | 81 | ~90 |  |  |  |  |  |  |
| 5-[(Z)-(5-Fluoro-2,3-dihydro-1H-indene-1-ylidene)methyl]-1H-imidazolium oxalate [Compound 47b] |  |  |  |  |  | 58 | 11 | 64 |  |  |  |
| N#Cc1ccc2c(c1)CC/C2=C/c1cnc[nH]1.O=C(O)C(=O)O [Compound 45b, (1Z)-1-(1H-Imidazole-5-ylmethylene)indane-5-carbonitrile oxalate] | 65 | 207 | 4 | 100 | ~90 |  |  |  |  |  |  |
| N#Cc1ccc(C2CCCc3cncn32)cc1 (stereo not drawn) [Fadrozole, 4-(5,6,7,8-tetrahydroimidazo[1,5-a]pyridine-5-yl)benzonitrile, reference compound] |  |  |  |  |  |  |  |  | 7 | 92 | lowers the aldosterone and corticosterone levels |
| N#Cc1ccc2c(c1)CCC/C2=C/c1cnc[nH]1.O=C(O)C(=O)O [Compound 44b, (5Z)-5-(1H-Imidazole-5-ylmethylene)-5,6,7,8-tetrahydronaphthalene-2-carbonitrile oxalate] | 54 | 206 | 4 | 97 | ~90 |  |  |  |  |  |  |
